In patent US9994528B2, “Certain amino-pyridines and amino-triazines, compositions thereof, and methods for their use” (Cytokinetics, Inc., priority 2010, dated 2018):

The compounds below were run on rabbit skeletal myofibrils (approximately 90% fast fibers) (assay: Activation of fast skeletal myofibrils (PUMA coupled-enzyme ATPase assay)). Conditions: AC1.4 = concentration at which the compound increased the enzymatic activity by 40%; myofibril suspension at calcium level pCa25; PM12 buffer pH 6.8.
Type: biochemical
Experimental: Preparation of fast skeletal myofibrils. Rabbit skeletal myofibrils were prepared based upon the method of Herrmann et al. (Biochem. 32(28):7255-7263(1993). Myofibrils were prepared from rabbit psoas muscle purchased from Pel-Freez Biologicals (Arkansas) within 2 days of ordering, stored on ice. Minced muscle was homogenized in 10 volumes of ice-cold “standard” buffer (50 mM Tris, pH 7.4, 0.1 M potassium acetate, 5 mM KCl, 2 mM DTT, 0.2 mM PMSF, 10 μM leupeptin, 5 μM pepstatin, and 0.5 mM sodium azide) containing 5 mM EDTA and 0.5% Triton X-100 using an Omni-Macro homogenizer. Myofibrils were recovered by low speed centrifugation (3000 rpm for 10 minutes) and washed 2 times in the Triton X-100 containing buffer to ensure removal of cellular membrane. Following the Triton washes, myofibrils were washed 3 times in “standard” buffer containing 2 mM magnesium acetate. A final wash in assay buffer (12 mM PIPES, pH 6.8, 60 mM KCl, 1 mM DTT) was performed and brought to 10% sucrose for flash freezing in liquid nitrogen and storage at −80° C.
Activation of Fast Skeletal Myofibrils. Fast fiber activators were identified by measuring the enzymatic activity of muscle myofibril preparations using the proprietary PUMA™ (see, e.g., U.S. Pat. Nos. 6,410,254, 6,743,599, 7,202,051, and 7,378,254) assay system. Myofibril preparations consisted of rabbit skeletal muscle (approximately 90% fast fibers) that had been mechanically homogenized and washed with a detergent (triton X-100) to remove cellular membranes. This preparation retained all of the sarcomeric components in a native conformation and the enzymatic activity was still regulated by calcium. Compounds were tested using a myofibril suspension and a level of calcium sufficient to increase enzymatic activity of the myofibrils to 25% of their maximal rate (termed pCa25). Enzymatic activity was tracked via a pyruvate kinase and lactate dehydrogenase-coupled enzyme system. This assay regenerates myosin-produced ADP into ATP by oxidizing NADH, producing an absorbance change at 340 nm. The buffering system was 12 mM Pipes, 2 mM MgCl2, 1 mM DTT at pH 6.8 (PM12 buffer).
Using procedures similar to those described herein, utilizing reagents and intermediates commercially available (e.g., Sigma-Aldrich,) or readily synthesized by one of skill in the art, the compounds in Table 2 were synthesized, characterized and tested. AC1.4 values were determined according to the procedure described in Example 25, and the reported median AC1.4 values are as follows: A=<1 uM; B=1-10 uM; C=10-20 uM; D=>20 uM.

Mean AC1.4 | Compound
C (C=10-20 uM) | 2-{2-[3-({[3-fluoro-1-(3-fluoro(2- pyridyl))cyclobutyl]methyl}amino)-1,2,4- triazin-6-yl]-1,3-thiazoI-5-yl}acetamide
D (D=>20 uM) | CC(C)(Nc1ncc(-n2cc(C(N)=O)cn2)nn1)c1ncccc1Cl [1-(3-{[1-(3-chloro(2-pyridyl))-isopropyl]amino}-1,2,4-triazin-6-yl)pyrazole-4-carboxamide]
D (D=>20 uM) | CC(C)(Nc1ncc(-n2cc(C(N)=O)cn2)nn1)c1ncccc1F [1-(3-{[1-(3-fluoro(2-pyridyl))-isopropyl]amino}-1,2,4-triazin-6-yl)pyrazole-4-carboxamide]
B (B=1-10 uM) | CC(C)(CNc1ncc(-n2cc(C(N)=O)cn2)nn1)c1ccc(F)cc1 [1-(3-{[2-(4-fluorophenyl)-2-methylpropyl]amino}-1,2,4-triazin-6-yl)pyrazole-4-carboxamide]
D (D=>20 uM) | NC(=O)c1cnn(-c2cnc(NC3(c4ncccc4F)CCC3)nn2)c1 [1-(3-{[(3-fluoro-2-pyridyl)cyclobutyl]amino}-1,2,4-triazin-6-yl)pyrazole-4-carboxamide]
D (D=>20 uM) | CC(C)(CNc1ccc(C(O)CO)cn1)c1ccc(F)cc1 (stereo not shown) [1-(6-{[2-(4-fluorophenyl)-2-methylpropyl]amino}-3-pyridyl)ethane-1,2-diol]
B (B=1-10 uM) | CC(C)(Nc1ncc(-n2cc(C(N)=O)cn2)nn1)c1cccc(OC(F)F)n1 [1-[3-({1-[6-(difluoromethoxy)(2-pyridyl)]-isopropyl}amino)-1,2,4-triazin-6-yl]pyrazole-4-carboxamide]
B (B=1-10 uM) | NC(=O)c1cnn(-c2cnc(NCC3(c4ncccc4F)CCC3)nn2)c1 [1-[3-({[(3-fluoro-2-pyridyl)cyclobutyl]methyl}amino)-1,2,4-triazin-6-yl]pyrazole-4-carboxamide]
D (D=>20 uM) | CC(C)(Nc1ncc(-c2ncc(CC(N)=O)s2)nn1)c1ncccc1F [2-[2-(3-{[1-(3-fluoro(2-pyridyl))-isopropyl]amino}-1,2,4-triazin-6-yl)-1,3-thiazol-5-yl]acetamide]
D (D=>20 uM) | CC(C)(Nc1ncc(-c2cccc(CC(N)=O)c2)nn1)c1ncccc1F [2-[3-(3-{[1-(3-fluoro(2-pyridyl))-isopropyl]amino}-1,2,4-triazin-6-yl)phenyl]acetamide]
B (B=1-10 uM) | CC(C)(Nc1ncc(-c2ncc(C(N)=O)s2)nn1)c1cccc(OC(F)F)n1 [2-[3-({1-[6-(difluoromethoxy)(2-pyridyl)]-isopropyl}amino)-1,2,4-triazin-6-yl]-1,3-thiazole-5-carboxamide]
B (B=1-10 uM) | CC(C)(Nc1ncc(-c2cc(CNC(=O)CN)ccc2F)nn1)c1ncccc1F [2-amino-N-{[4-fluoro-3-(3-{[1-(3-fluoro(2-pyridyl))-isopropyl]amino}(1,2,4-triazin-6-yl))phenyl]methyl}acetamide]
D (D=>20 uM) | CC(C)(Nc1ncc(-c2ccc(F)c(C(N)=O)c2)nn1)c1ncccc1F [2-fluoro-5-(3-{[1-(3-fluoro(2-pyridyl))-isopropyl]amino}(1,2,4-triazin-6-yl))benzamide]
D (D=>20 uM) | CC(C)(Nc1ncc(-c2ccc(F)c(C(=O)O)c2)nn1)c1ncccc1F [2-fluoro-5-(3-{[1-(3-fluoro(2-pyridyl))-isopropyl]amino}(1,2,4-triazin-6-yl))benzoic acid]
C (C=10-20 uM) | N#Cc1cc(-c2cnc(NCC3(c4ncccc4F)CCC3)nn2)ccc1F [2-fluoro-5-[3-({[(3-fluoro(2-pyridyl))cyclobutyl]methyl}amino)(1,2,4-triazin-6-yl)]benzenecarbonitrile]
C (C=10-20 uM) | NC(=O)Cc1cnc(-c2cnc(NCC3(c4ncccc4F)CCC3)nn2)s1 [2-{2-[3-({[(3-fluoro-2-pyridyl)cyclobutyl]methyl}amino)-1,2,4-triazin-6-yl]-1,3-thiazol-5-yl}acetamide]

Mean AC1.4 | Compound
B (B=1-10 uM) | CC(C)(CNc1ccc2cc(C(N)=O)ccc2n1)c1ccc(F)cc1 [2-{[2-(4-fluorophenyl)-2-methylpropyl]amino}quinoline-6-carboxamide]
B (B=1-10 uM) | CC(C)(Nc1ncc(-c2cc(C(N)=O)ccc2F)nn1)c1ncccc1Cl [3-(3-{[1-(3-chloro(2-pyridyl))-isopropyl]amino}(1,2,4-triazin-6-yl))-4-fluorobenzamide]
B (B=1-10 uM) | CC(C)(Nc1ncc(-c2cccc(C(N)=O)c2)nn1)c1ncccc1Cl [3-(3-{[1-(3-chloro(2-pyridyl))-isopropyl]amino}-1,2,4-triazin-6-yl)benzamide]
B (B=1-10 uM) | CC(C)(Nc1ncc(-c2cccc(C(N)=O)c2)nn1)c1ncccc1F [3-(3-{[1-(3-fluoro(2-pyridyl))-isopropyl]amino}-1,2,4-triazin-6-yl)benzamide]
B (B=1-10 uM) | CC(C)(CNc1ncc(-c2cc(C(N)=O)ccc2F)nn1)c1ncccc1Cl [3-(3-{[2-(3-chloro(2-pyridyl))-2-methylpropyl]amino}(1,2,4-triazin-6-yl))-4-fluorobenzamide]
B (B=1-10 uM) | CC(C)(CNc1ncc(-c2cc(C(=O)O)ccc2F)nn1)c1ncccc1Cl [3-(3-{[2-(3-chloro(2-pyridyl))-2-methylpropyl]amino}(1,2,4-triazin-6-yl))-4-fluorobenzoic acid]
B (B=1-10 uM) | CC(C)(CNc1ncc(-c2cccc(C(N)=O)c2)nn1)c1ccc(F)cc1 [3-(3-{[2-(4-fluorophenyl)-2-methylpropyl]amino}-1,2,4-triazin-6-yl)benzamide]
B (B=1-10 uM) | NC(=O)c1cccc(-c2cnc(NCC3(c4ccccn4)CCC3)nn2)c1 [3-(3-{[(2-pyridylcyclobutyl)methyl]amino}-1,2,4-triazin-6-yl)benzamide]
B (B=1-10 uM) | N#Cc1cccc(-c2cnc(NCC3(c4ccccn4)CCC3)nn2)c1 [3-(3-{[(2-pyridylcyclobutyl)methyl]amino}-1,2,4-triazin-6-yl)benzenecarbonitrile]
B (B=1-10 uM) | CC(C)(CNc1cnc(-c2cccc(C(N)=O)c2)nn1)c1ccc(F)cc1 [3-(6-{[2-(4-fluorophenyl)-2-methylpropyl]amino}-1,2,4-triazin-3-yl)benzamide]
A (A=<1 uM) | CC(C)(CNc1ccc(-c2cccc(C(N)=O)c2)cn1)c1ccc(F)cc1 [3-(6-{[2-(4-fluorophenyl)-2-methylpropyl]amino}-3-pyridyl)benzamide]
D (D=>20 uM) | CC(C)(CNc1ccc(CC(O)CO)cn1)c1ccc(F)cc1 (stereo not shown) [3-(6-{[2-(4-fluorophenyl)-2-methylpropyl]amino}-3-pyridyl)propane-1,2-diol]
D (D=>20 uM) | NC(=O)c1cccc(-c2ccc(NCCc3ccc(F)cc3)nc2)c1 [3-(6-{[2-(4-fluorophenyl)ethyl]amino}-3-pyridyl)benzamide]
B (B=1-10 uM) | C[C@@H](CNc1ccc(-c2cccc(C(N)=O)c2)cn1)c1ccc(F)cc1 [3-(6-{[(2R)-2-(4-fluorophenyl)propyl]amino}-3-pyridyl)benzamide]
B (B=1-10 uM) | C[C@H](CNc1ccc(-c2cccc(C(N)=O)c2)cn1)c1ccc(F)cc1 [3-(6-{[(2S)-2-(4-fluorophenyl)propyl]amino}-3-pyridyl)benzamide]
